Source: PubChem BioAssay (NCI)
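Growth conditions: 96-well plates. Treatment: test compound, 48 hours, 5 concentrations. Analysis: linear interpolation between bracketing concentrations; unreached endpoints set to highest concentration. GI50 = concentration required for 50% inhibition of growth. TGI: concentration producing complete growth inhibition.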

Columns and labels:
Assay in all cases: inhibition of tumour cell growth, NCI panel, 48 h
[1] = tested on: 786-0 renal
[2] = tested on: A498 renal
[3] = tested on: A549 NSCLC
[4] = tested on: ACHN renal
[5] = tested on: BT-549 breast
[6] = tested on: CAKI-1 renal
[7] = tested on: CCRF-CEM leukemia
[8] = tested on: COLO 205 colon
[9] = tested on: DU-145 prostate
[10] = tested on: EKVX NSCLC
[11] = tested on: HCC-2998 colon
[12] = tested on: HCT-116 colon
[13] = tested on: HCT-15 colon
[14] = tested on: HL-60(TB) leukemia
[15] = tested on: HOP-62 NSCLC
[16] = tested on: HS 578T breast
[17] = tested on: HT29 colon
[18] = tested on: IGROV1 ovarian
[19] = tested on: K-562 leukemia
[20] = tested on: KM12 colon
[21] = tested on: LOX IMVI melanoma
[22] = tested on: M14 melanoma
[23] = tested on: MCF7 breast
[24] = tested on: MDA-MB-231 breast
[25] = tested on: MDA-MB-435
[26] = tested on: MOLT-4 leukemia
[27] = tested on: NCI-H226 lung
[28] = tested on: NCI-H23 lung
[29] = tested on: NCI-H460 lung
[30] = tested on: NCI-H522 lung
[31] = tested on: NCI/ADR-RES ovarian
[32] = tested on: OVCAR-3 ovarian
[33] = tested on: OVCAR-4 ovarian
[34] = tested on: OVCAR-5 ovarian
[35] = tested on: OVCAR-8 ovarian
[36] = tested on: PC-3 prostate
[37] = tested on: RPMI-8226 leukemia
[38] = tested on: SF-268 CNS
[39] = tested on: SF-295 CNS
[40] = tested on: SK-MEL-2 melanoma
[41] = tested on: SK-MEL-28 melanoma
[42] = tested on: SK-MEL-5 melanoma
[43] = tested on: SK-OV-3 ovarian
[44] = tested on: SN12C renal
[45] = tested on: SNB-19 CNS
[46] = tested on: SNB-75 CNS
[47] = tested on: SR leukemia
[48] = tested on: SW-620 colon
[49] = tested on: T-47D breast
[50] = tested on: TK-10 renal
[51] = tested on: U251 CNS
[52] = tested on: UACC-257 melanoma
[53] = tested on: UACC-62 melanoma
[54] = tested on: UO-31 renal
[55] = tested on: HOP-92 NSCLC
[56] = tested on: MALME-3M melanoma
[57] = tested on: RXF 393 renal
[58] = tested on: SF-539 CNS

With `COc1ccc2c(c1)N(CCO)C1=C(C(=O)OC1)C2c1ccc(OC)c(OC)c1` (configuration not stated) the GI50 [1] was 3.98 µM, the TGI [1] was > 100 µM and the GI50 [2] was 1.56 µM. The TGI [2] was 5.93 µM, the GI50 [3] was 3.86 µM and the TGI [3] was > 100 µM. For the same compound, the GI50 [4] was 6.3 µM, the TGI [4] was > 100 µM and the GI50 [5] was 2.98 µM. The TGI [5] was 9.74 µM, the GI50 [6] was 3.05 µM and the TGI [6] was > 100 µM. The GI50 [7] was 3.99 µM, the TGI [7] was > 100 µM and the GI50 [8] was 2.53 µM. It also gave a TGI [8] of 5.93 µM, a GI50 [9] of 3.01 µM and a TGI [9] of 9.38 µM. The GI50 [10] was 6.52 µM, the TGI [10] was > 100 µM and the GI50 [11] was 2.61 µM. For the same compound, the TGI [11] was > 100 µM, the GI50 [12] was 2.64 µM and the TGI [12] was 15.3 µM. For the same compound, the GI50 [13] was 3.09 µM, the TGI [13] was > 100 µM and the GI50 [14] was 2.04 µM. For the same compound, the TGI [14] was 5.51 µM, the GI50 [15] was 4.89 µM and the TGI [15] was > 100 µM. It also gave a GI50 [16] of 2.88 µM, a TGI [16] of 9.82 µM and a GI50 [17] of 2.73 µM. The TGI [17] was 7.51 µM, the GI50 [18] was 3.46 µM and the TGI [18] was > 100 µM. For the same compound, the GI50 [19] was 1.26 µM, the TGI [19] was > 100 µM and the GI50 [20] was 1.43 µM. For the same compound, the TGI [20] was 14.7 µM, the GI50 [21] was 4.89 µM and the TGI [21] was > 100 µM. For the same compound, the GI50 [22] was 2.44 µM, the TGI [22] was > 100 µM and the GI50 [23] was 2.67 µM. The TGI [23] was > 100 µM, the GI50 [24] was 3.63 µM and the TGI [24] was 10.7 µM. It also gave a GI50 [25] of 0.407 µM, a TGI [25] of 2.13 µM and a GI50 [26] of 4.75 µM. The TGI [26] was > 100 µM, the GI50 [27] was 2.29 µM and the TGI [27] was 9.55 µM. The GI50 [28] was 3.39 µM, the TGI [28] was > 100 µM and the GI50 [29] was 3.09 µM. It also gave a TGI [29] of 12.6 µM, a GI50 [30] of 1.48 µM and a TGI [30] of 5.25 µM. The GI50 [31] was 4.38 µM, the TGI [31] was 45.1 µM and the GI50 [32] was 1.92 µM. The TGI [32] was 4.24 µM, the GI50 [33] was 4.77 µM and the TGI [33] was > 100 µM. The GI50 [34] was 5.76 µM, the TGI [34] was > 100 µM and the GI50 [35] was 3.34 µM. For the same compound, the TGI [35] was > 100 µM, the GI50 [36] was 3.03 µM and the TGI [36] was > 100 µM. The GI50 [37] was 3.78 µM, the TGI [37] was > 100 µM and the GI50 [38] was 4.5 µM. The TGI [38] was > 100 µM, the GI50 [39] was 2.43 µM and the TGI [39] was > 100 µM. For the same compound, the GI50 [40] was 2.66 µM, the TGI [40] was 11.3 µM and the GI50 [41] was 3.33 µM. For the same compound, the TGI [41] was > 100 µM, the GI50 [42] was 2.63 µM and the TGI [42] was 15.5 µM. For the same compound, the GI50 [43] was 4.13 µM, the TGI [43] was > 100 µM and the GI50 [44] was 5.8 µM. The TGI [44] was > 100 µM, the GI50 [45] was 4.54 µM and the TGI [45] was > 100 µM. For the same compound, the GI50 [46] was 2.7 µM, the TGI [46] was > 100 µM and the GI50 [47] was 3.68 µM. For the same compound, the TGI [47] was > 100 µM, the GI50 [48] was 3.21 µM and the TGI [48] was > 100 µM. For the same compound, the GI50 [49] was > 100 µM, the TGI [49] was > 100 µM and the GI50 [50] was 4.19 µM. For the same compound, the TGI [50] was > 100 µM, the GI50 [51] was 2.97 µM and the TGI [51] was > 100 µM. For the same compound, the GI50 [52] was 3.38 µM, the TGI [52] was > 100 µM and the GI50 [53] was 2.13 µM. The TGI [53] was > 100 µM, the GI50 [54] was 4.65 µM and the TGI [54] was > 100 µM.
`Fc1ccc(-c2c(-c3ccncc3)[nH]c3nccnc23)cc1` was tested, and the GI50 [1] was 11.3 µM, the TGI [1] was > 25 µM and the GI50 [2] was 4.76 µM. For the same compound, the TGI [2] was > 23.2 µM, the GI50 [3] was 7.35 µM and the TGI [3] was > 25 µM. The GI50 [4] was 3.05 µM, the TGI [4] was > 25 µM and the GI50 [5] was > 15.2 µM. For the same compound, the TGI [5] was > 25 µM, the GI50 [6] was 4.52 µM and the TGI [6] was > 19.9 µM. For the same compound, the GI50 [7] was 24.6 µM, the TGI [7] was > 25 µM and the GI50 [8] was 5.86 µM. The TGI [8] was > 25 µM, the GI50 [9] was 7.32 µM and the TGI [9] was > 22 µM. For the same compound, the GI50 [11] was 12 µM, the TGI [11] was > 25 µM and the GI50 [12] was 6.39 µM. The TGI [12] was > 22.1 µM, the GI50 [13] was 8.28 µM and the TGI [13] was > 25 µM. The GI50 [14] was 16.3 µM, the TGI [14] was > 25 µM and the GI50 [15] was > 15.3 µM. The TGI [15] was > 25 µM, the GI50 [55] was > 25 µM and the TGI [55] was > 25 µM. For the same compound, the GI50 [16] was 8.03 µM, the TGI [16] was > 25 µM and the GI50 [17] was 6.41 µM. The TGI [17] was > 25 µM, the GI50 [18] was 16.2 µM and the TGI [18] was > 25 µM. The GI50 [19] was > 25 µM, the TGI [19] was > 25 µM and the GI50 [20] was 8.92 µM. For the same compound, the TGI [20] was > 25 µM, the GI50 [21] was 11.1 µM and the TGI [21] was > 25 µM. For the same compound, the GI50 [22] was > 18.7 µM, the TGI [22] was > 25 µM and the GI50 [56] was > 9.39 µM. For the same compound, the TGI [56] was > 17.4 µM, the GI50 [23] was 7.39 µM and the TGI [23] was > 25 µM. The GI50 [24] was > 14.4 µM, the TGI [24] was > 25 µM and the GI50 [25] was 11.6 µM. For the same compound, the TGI [25] was > 25 µM, the GI50 [26] was > 25 µM and the TGI [26] was > 25 µM. For the same compound, the GI50 [27] was 6.76 µM, the TGI [27] was > 25 µM and the GI50 [28] was > 17.4 µM. For the same compound, the TGI [28] was > 25 µM, the GI50 [29] was 7.11 µM and the TGI [29] was > 21.3 µM. For the same compound, the GI50 [30] was > 11.1 µM, the TGI [30] was > 21.6 µM and the GI50 [31] was 16.1 µM. For the same compound, the TGI [31] was > 25 µM, the GI50 [32] was 10.3 µM and the TGI [32] was > 25 µM. The GI50 [33] was > 16.7 µM, the TGI [33] was > 25 µM and the GI50 [34] was 11.2 µM. For the same compound, the TGI [34] was > 25 µM, the GI50 [35] was 10.4 µM and the TGI [35] was > 25 µM. For the same compound, the GI50 [36] was > 25 µM, the TGI [36] was > 25 µM and the GI50 [37] was > 25 µM. For the same compound, the TGI [37] was > 25 µM, the GI50 [57] was 3.69 µM and the TGI [57] was 9.8 µM. The GI50 [38] was 10.9 µM, the TGI [38] was > 25 µM and the GI50 [39] was > 15.1 µM. The TGI [39] was > 25 µM, the GI50 [58] was 9.94 µM and the TGI [58] was > 25 µM. The GI50 [40] was 13.6 µM, the TGI [40] was > 25 µM and the GI50 [41] was 16.2 µM. For the same compound, the TGI [41] was > 25 µM, the GI50 [42] was 11 µM and the TGI [42] was > 25 µM. For the same compound, the GI50 [43] was 8.25 µM, the TGI [43] was > 25 µM and the GI50 [44] was 7.84 µM. For the same compound, the TGI [44] was > 25 µM, the GI50 [45] was > 20.3 µM and the TGI [45] was > 25 µM. The GI50 [46] was 2.66 µM, the TGI [46] was > 25 µM and the GI50 [47] was 8.79 µM. For the same compound, the TGI [47] was > 25 µM, the GI50 [48] was 13.6 µM and the TGI [48] was > 25 µM. The GI50 [49] was 7.09 µM, the TGI [49] was > 25 µM and the GI50 [50] was 5.94 µM. For the same compound, the TGI [50] was > 21.6 µM, the GI50 [51] was 12.5 µM and the TGI [51] was > 25 µM. For the same compound, the GI50 [52] was > 20 µM, the TGI [52] was > 25 µM and the GI50 [53] was 6.33 µM. The TGI [53] was > 25 µM, the GI50 [54] was 3.43 µM and the TGI [54] was > 25 µM.
